How the values were obtained:
[1] = biological target: T1, hENPP2 (UniProtKB/SwissProt Q13822) (Homo sapiens (Human), UniProt Q13822); assay: fluorescent hENPP2 biochemical assay, FS-3 as substrate; settings: read-out: FS3-IC50
Experimental: Compound IC50 values are determined in a fluorescent hENPP2 (UniProtKB/SwissProt Sequence ref Q13822) biochemical assay using the fluorogenic autotaxin substrate FS-3 as substrate. FS-3 is a doubly labeled analog of LPC wherein the fluorophore is quenched through intramolecular energy transfer. Without hENPP2, the emission of the probe is quenched. If the substrate is hydrolyzed by hENPP2, the emission of the probe is not quenched anymore resulting in a fluorescence increase.
The enzyme is diluted in 50 mM Tris-HCl pH 8.0, 250 mM NaCl, 5 mM KCl, 1 mM MgCl2, 1 mM CaCl2, 0.1% fatty acid free BSA in a total volume of 20 μL. Enzyme mixture is added to compounds and the resulting mixture is incubated for 30 min at room temperature under shaking. The reaction is started by the addition of 20 μL of 0.75 μM FS-3 diluted in the same buffer as described above and the mixture is incubated at 30° C. for 30 min. Fluorescence is read on the Envision (Excitation 485 nm, emission 520 nm).

[2] = biological target: T1, hENPP2; assay: hENPP2 biochemical assay, LPC as substrate; settings: LPC (palmitoyl 16:0) as substrate
Procedure, shortened: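 Human ENPP2 in 50 mM Tris-HCl pH 8.5, 500 mM NaCl, 5 mM KCl, 10 mM CaCl2, 0.1% fatty-acid-free BSA, reacted 30 min at 37 °C with LPC 16:0 (150 µM solution added 1:1). Released choline measured via choline oxidase/peroxidase/TOOS/4-aminoantipyrine quinoneimine dye at 555 nm; IC50 reported.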

| SMILES | IC50 [1] | IC50 [2] |
| --- | --- | --- |
| CCc1nc2ccc(N3CCN(S(=O)(=O)CCCCl)CC3)cn2c1N(C)c1nc(-c2ccc(F)cc2)cs1 [Compound 55, N-(6-(4-(3-chloropropylsulfonyl)piperazin-1-yl)-2-ethylimidazo[1,2-a]pyridin-3-yl)-4-(4-fluorophenyl)-N-methylthiazol-2-amine] | 0.01 to 100 nM | > 1000 nM |
| CCc1nc2ccc(N3CCN(S(=O)(=O)CCCN4CCCC4)CC3)cn2c1N(C)c1nc(-c2ccc(F)cc2)cs1 [Compound 57, N-(2-ethyl-6-(4-(3-(pyrrolidin-1-yl)propylsulfonyl)piperazin-1-yl)imidazo [1,2-a]pyridin-3-yl)-4-(4-fluorophenyl)-N-methylthiazol-2-amine] | 0.01 to 100 nM | > 1000 nM |
| CCc1nc2ccc(N3CCN(S(=O)(=O)CC(=O)OC)CC3)cn2c1N(C)c1nc(-c2ccc(F)cc2)cs1 [Compound 59, methyl 2-(4-(2-ethyl-3-((4-(4-fluorophenyl)thiazol-2-yl)(methyl)amino)imidazo[1,2-a]pyridin-6-yl)piperazin-1-ylsulfonyl)acetate] | 0.01 to 100 nM | > 1000 nM |
| CCc1nc2ccc(N3CCN(S(=O)(=O)CC(=O)O)CC3)cn2c1N(C)c1nc(-c2ccc(F)cc2)cs1 [Compound 60, 2-(4-(2-ethyl-3-((4-(4-fluorophenyl)thiazol-2-yl)(methyl)amino)imidazo[1,2-a]pyridin-6-yl)piperazin-1-ylsulfonyl)acetic acid] | 0.01 to 100 nM | > 1000 nM |
| CCc1nc2ccc(N3CCN(S(=O)(=O)CC(N)=O)CC3)cn2c1N(C)c1nc(-c2ccc(F)cc2)cs1 [Compound 61, 2-(4-(2-ethyl-3-((4-(4-fluorophenyl)thiazol-2-yl)(methyl)amino)imidazo[1,2-a]pyridin-6-yl)piperazin-1-ylsulfonyl)acetamide] | 0.01 to 100 nM | > 1000 nM |
| CCc1nc2ccc(N3CCN(C(=O)OC(C)(C)C)CC3=O)cn2c1N(C)c1nc(-c2ccc(F)cc2)cs1 [Compound 62, 4-(2-Ethyl-3-{[4-(4-fluoro-phenyl)-thiazol-2-yl]-methyl-amino}-imidazo[1,2-a]pyridin-6-yl)-3-oxo-piperazine-1-carboxylic acid tert-butyl est] | 0.01 to 100 nM | > 1000 nM |
| CCc1nc2ccc(N3CCN(C(=O)OC(C)(C)C)CC3=O)cn2c1N(C)c1nc(-c2ccc(Cl)cc2)cs1 [Compound 63, tert-butyl 4-(3-((4-(4-chlorophenyl)thiazol-2-yl)(methyl)amino)-2-ethylimidazo[1,2-a]pyridin-6-yl)-3-oxopiperazine-1-carboxylate] | 0.01 to 100 nM | > 1000 nM |
| CCOC(=O)CN1CCN(c2ccc3nc(CC)c(N(C)c4nc(-c5ccc(F)cc5)cs4)n3c2)C(=O)C1 [Compound 64, ethyl 2-(4-(2-ethyl-3-((4-(4-fluorophenyl)thiazol-2-yl)(methyl)amino)imidazo[1,2-a]pyridin-6-yl)-3-oxopiperazin-1-yl)acetate] | 0.01 to 100 nM | > 1000 nM |
| CCc1nc2ccc(N3CCN(S(C)(=O)=O)CC3=O)cn2c1N(C)c1nc(-c2ccc(F)cc2)cs1 [Compound 65, 1-(2-ethyl-3-((4-(4-fluorophenyl)thiazol-2-yl)(methyl)amino)imidazo[1,2-a]pyridin-6-yl)-4-(methylsulfonyl) piperazin-2-one] | 0.01 to 100 nM | > 1000 nM |
| CCc1nc2ccc(C3=CCN(S(=O)(=O)CCl)CC3)cn2c1N(C)c1nc(-c2ccc(F)cc2)cs1 [Compound 67, N-(6-(1-(chloromethylsulfonyl)-1,2,3,6-tetrahydropyridin-4-yl)-2-ethylimidazo[1,2-a]pyridin-3-yl)-4-(4-fluorophenyl)-N-methylthiazol-2-amine] | 0.01 to 100 nM | > 1000 nM |
| CCc1nc2ccc(C3=CCN(S(C)(=O)=O)C3)cn2c1N(C)c1nc(-c2ccc(Cl)cc2)cs1 [Compound 68, 4-(4-chlorophenyl)-N-(2-ethyl-6-(1-(methylsulfonyl)-2,5-dihydro-1H-pyrrol-3-yl)imidazo[1,2-a]pyridin-3-yl)-N-methylthiazol-2-amine] | 0.01 to 100 nM | > 1000 nM |
| CCc1nc2ccc(C3=CN(S(C)(=O)=O)CCC3)cn2c1N(C)c1nc(-c2ccc(Cl)cc2)cs1 [Compound 69, 4-(4-chlorophenyl)-N-(2-ethyl-6-(1-(methylsulfonyl)-1,4,5,6-tetrahydropyridin-3-yl)imidazo[1,2-a]pyridin-3-yl)-N-methylthiazol-2-amine] | 0.01 to 100 nM | > 1000 nM |
| CCc1nc2ccc(C3=CCN(S(=O)(=O)CCCOC(C)=O)CC3)cn2c1N(C)c1nc(-c2ccc(F)cc2)cs1 [Compound 74, Acetic acid 3-[4-(2-ethyl-3-{[4-(4-fluoro-phenyl)-thiazol-2-yl]-methyl-amino}-imidazo[1,2-a]pyridin-6-yl)-3,6-dihydro-2H-pyridine-1-sulfonyl]-propyl ester] | 0.01 to 100 nM | > 1000 nM |
| CCc1nc2ccc(C3=CCS(=O)(=O)CC3)cn2c1N(C)c1nc(-c2ccc(Cl)cc2)cs1 [Compound 76, 4-(2-ethyl-3-((4-(4-chlorophenyl)thiazol-2-yl)(methyl)amino)imidazo[1,2-a]pyridin-6-yl)-3,6-dihydro-2H-thiopyran 1,1-dioxide] | 0.01 to 100 nM | > 1000 nM |

Results, then the compound that gave them:

| IC50 [1] | IC50 [2] | SMILES |
| --- | --- | --- |
| 0.01 to 100 nM | 100 to 500 nM | CCOC(=O)CN1CCN(c2ccc3nc(CC)c(N(C)c4nc(-c5ccc(F)cc5)cs4)n3c2)CC1 [Compound 36, ethyl 2-(4-(2-ethyl-3-((4-(4-fluorophenyl)thiazol-2-yl)(methyl)amino)imidazo [1,2-a]pyridin-6-yl)piperazin-1-yl)acetate] |
| 0.01 to 100 nM | > 1000 nM | CCc1nc2ccc(N3CCN(CC#N)CC3)cn2c1N(C)c1nc(-c2ccc(F)cc2)cs1 [Compound 38, 2-(4-(2-ethyl-3-((4-(4-fluorophenyl)thiazol-2-yl)(methyl)amino)imidazo[1,2-a]pyridin-6-yl)piperazin-1-yl)acetonitrile] |
| 0.01 to 100 nM | > 1000 nM | CCc1nc2ccc(N3CCN(Cc4nnnn4C4CC4)CC3)cn2c1N(C)c1nc(-c2ccc(F)cc2)cs1 [Compound 39, N-(6-(4-((1-cyclopropyl-1H-tetrazol-5-yl)methyl)piperazin-1-yl)-2-ethylimidazo[1,2-a]pyridin-3-yl)-4-(4-fluorophenyl)-N-methylthiazol-2-amine] |
| 0.01 to 100 nM | > 1000 nM | CCc1nc2ccc(N3CCN(Cc4ncon4)CC3)cn2c1N(C)c1nc(-c2ccc(F)cc2)cs1 [Compound 41, N-(6-(4-((1,2,4-oxadiazol-3-yl)methyl)piperazin-1-yl)-2-ethylimidazo[1,2-a]pyridin-3-yl)-4-(4-fluorophenyl)-N-methylthiazol-2-amine] |
| 0.01 to 100 nM | > 1000 nM | CCc1nc2ccc(N3CCN(CC(=O)O)CC3)cn2c1N(C)c1nc(-c2ccc(F)cc2)cs1 [Compound 42, 2-(4-(2-ethyl-3-((4-(4-fluorophenyl)thiazol-2-yl)(methyl)amino)imidazo[1,2-a]pyridin-6-yl)piperazin-1-yl)acetic acid] |
| 0.01 to 100 nM | > 1000 nM | CCc1nc2ccc(N3CCN(C(=O)OCCO)CC3)cn2c1N(C)c1nc(-c2ccc(F)cc2)cs1 [Compound 43, 2-hydroxyethyl 4-(2-ethyl-3-((4-(4-fluorophenyl)thiazol-2-yl)(methyl)amino)imidazo[1,2-a]pyridin-6-yl)piperazine-1-carboxylate] |
| 0.01 to 100 nM | > 1000 nM | CCc1nc2ccc(N3CCN(C(=O)C4CCNC4)CC3)cn2c1N(C)c1nc(-c2ccc(F)cc2)cs1 (centres unmarked) [Compound 47, (4-(2-ethyl-3-((4-(4-fluorophenyl)thiazol-2-yl)(methyl)amino)imidazo[1,2-a]pyridin-6-yl)piperazin-1-yl)(pyrrolidin-3-yl)methanone] |
| 0.01 to 100 nM | > 1000 nM | CCc1nc2ccc(N3CCN(C(=O)C4CCN(S(C)(=O)=O)C4)CC3)cn2c1N(C)c1nc(-c2ccc(F)cc2)cs1 (centres unmarked) [Compound 49, (4-(2-ethyl-3-((4-(4-fluorophenyl)thiazol-2-yl)(methyl)amino)imidazo[1,2-a]pyridin-6-yl)piperazin-1-yl)(1-(methylsulfonyl)pyrrolidin-3-yl) methanone] |
| 0.01 to 100 nM | 500 to 1000 nM | CCc1nc2ccc(N3CCN(C(=O)CO)CC3)cn2c1N(C)c1nc(-c2ccc(F)cc2)cs1 [Compound 50, 1-(4-(2-ethyl-3-((4-(4-fluorophenyl)thiazol-2-yl)(methyl)amino)imidazo[1,2-a]pyridin-6-yl)piperazin-1-yl)-2-hydroxyethanone] |
| 0.01 to 100 nM | > 1000 nM | CCC(=O)N1CCN(c2ccc3nc(CC)c(N(C)c4nc(-c5ccc(F)cc5)cs4)n3c2)CC1 [Compound 51, 1-(4-(2-ethyl-3-((4-(4-fluorophenyl)thiazol-2-yl)(methyl)amino)imidazo[1,2-a]pyridin-6-yl)piperazin-1-yl)propan-1-one] |
| 0.01 to 100 nM | > 1000 nM | CCc1nc2ccc(N3CCN(C(=O)CCCO)CC3)cn2c1N(C)c1nc(-c2ccc(F)cc2)cs1 [Compound 52, 1-(4-(2-ethyl-3-((4-(4-fluorophenyl)thiazol-2-yl)(methyl)amino)imidazo[1,2-a]pyridin-6-yl)piperazin-1-yl)-4-hydroxybutan-1-one] |

From US9670204B2, “Compounds and pharmaceutical compositions thereof for the treatment of inflammatory disorders” (Galapagos NV, priority 2013, dated 2017)
